The values that follow are results of earlier work, collected in US20200375975A1, “Treatment of Renal Cell Carcinoma with Lenvatinib and Everolimus” (Eisai R&D Management Co., Ltd., priority 2016, published 2020).

Structures are written as SMILES.

The test system of one series is rabbits. The note with it: rabbit, in vivo, po; cited from earlier work.
The next series concerns rats. The note with it: rat, in vivo, po; cited from earlier work.

`COc1cc2nccc(Oc3ccc(NC(=O)NC4CC4)c(Cl)c3)c2cc1C(N)=O` [lenvatinib, 4-(3-chloro-4(cyclopropylaminocarbonyl)aminophenoxy)-7-methoxy-6-quinolinecarboxamide]: the embryofetal toxicity findings result is “embryotoxicity, fetotoxicity, and teratogenicity” in the series on rabbits; “embryotoxicity, fetotoxicity, and teratogenicity” in the series on rats.
